Experimental data as given in ChEMBL document CHEMBL1201862, “PubChem BioAssay data set” (2004).
Calls of active or inactive are those of the source.

Legend:
[1] = target: T1, Small ubiquitin-related modifier 1 (Homo sapiens, UniProt P63165); assay: inhibitors of SUMO1 partner interactions, dose response, biochemical, FRET (AID 624383); format: functional; conditions: read-out: IC50_Mean
[2] = target: T1, Small ubiquitin-related modifier 1; assay: inhibitors of SUMO1 peptide binding, dose response, biochemical, fluorescence polarization, uHTS hits (AID 624382); format: functional; conditions: read-out: IC50_Mean
H9c2 = assay: cells; format: functional, cell-based; conditions: Rattus norvegicus, H9c2, Myocardium;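 also: confirmatory concentration-response retest of ultra-high-throughput screening hits for modulation of myocardial damage; cell death induced by hydrogen peroxide oxidative stress; compound pretreatment for 60 min then peroxide exposure for 2 h; potency is for protecting the cells against peroxide damage rather than for killing them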
[3] = target: Luciferin 4-monooxygenase (Photinus pyralis, UniProt P08659); assay: firefly luciferase enzyme inhibitors, dose response, biochemical, luminescence (AID 1891)
Sequence of Luciferin 4-monooxygenase (P08659 whole entry): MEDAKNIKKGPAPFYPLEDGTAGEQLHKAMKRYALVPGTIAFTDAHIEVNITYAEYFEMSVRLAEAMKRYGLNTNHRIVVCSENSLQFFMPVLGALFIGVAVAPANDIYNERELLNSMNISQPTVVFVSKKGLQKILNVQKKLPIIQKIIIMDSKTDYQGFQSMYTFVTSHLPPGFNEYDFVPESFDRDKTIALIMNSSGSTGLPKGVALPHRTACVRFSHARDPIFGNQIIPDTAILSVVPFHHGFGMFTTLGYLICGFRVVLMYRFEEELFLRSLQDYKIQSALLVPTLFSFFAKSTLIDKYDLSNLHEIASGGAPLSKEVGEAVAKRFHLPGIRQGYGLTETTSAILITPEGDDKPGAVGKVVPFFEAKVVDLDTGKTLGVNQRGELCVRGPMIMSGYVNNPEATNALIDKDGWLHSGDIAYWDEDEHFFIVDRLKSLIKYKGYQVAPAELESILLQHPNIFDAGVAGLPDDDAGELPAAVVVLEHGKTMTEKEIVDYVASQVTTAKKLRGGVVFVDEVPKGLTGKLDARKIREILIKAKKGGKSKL

[4] = Luminescence Cell-Based Dose Confirmation HTS to Identify Inhibitors of Platelet Dense Granule Release. [Related pubchem assays: 1663 (Primary HTS), 1678 (Summary of Project)]; format: functional
Nonstructural protein 1 = Nonstructural protein 1 (Influenza A virus, UniProt Q194T2); format: functional, Influenza A virus (A/California/07/2009(H1N1))
Sequence of Nonstructural protein 1 (Q194T2 whole entry): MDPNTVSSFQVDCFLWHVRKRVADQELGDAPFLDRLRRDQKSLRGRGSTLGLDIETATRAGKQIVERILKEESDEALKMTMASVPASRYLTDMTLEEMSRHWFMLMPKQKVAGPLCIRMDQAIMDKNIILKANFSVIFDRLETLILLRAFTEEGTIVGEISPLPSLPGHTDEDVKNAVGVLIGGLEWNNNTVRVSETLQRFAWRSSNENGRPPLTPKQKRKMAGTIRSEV

[5] = microbe, parasite or virus in culture; format: functional; conditions: Mycobacterium tuberculosis
[6] = target: T2, Ubiquitin-conjugating enzyme E2 N (Homo sapiens, UniProt P61088); format: functional;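 also: Dose-response confirmation in a TR-FRET assay detecting UBC13-driven polyubiquitin chain formation, inhibition measured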
T2 sequence (P61088 whole entry): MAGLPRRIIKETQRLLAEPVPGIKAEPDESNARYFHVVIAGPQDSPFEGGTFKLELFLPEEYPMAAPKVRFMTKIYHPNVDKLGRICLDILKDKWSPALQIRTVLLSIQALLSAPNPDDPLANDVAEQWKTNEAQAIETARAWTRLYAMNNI

[7] = target: T3, High affinity choline transporter 1 (Homo sapiens, UniProt Q9GZV3); assay: CHT inhibitors, dose response, cell-based, 5-point CRC, membrane potential dye (AID 504840); format: functional
T3 sequence (Q9GZV3 whole entry): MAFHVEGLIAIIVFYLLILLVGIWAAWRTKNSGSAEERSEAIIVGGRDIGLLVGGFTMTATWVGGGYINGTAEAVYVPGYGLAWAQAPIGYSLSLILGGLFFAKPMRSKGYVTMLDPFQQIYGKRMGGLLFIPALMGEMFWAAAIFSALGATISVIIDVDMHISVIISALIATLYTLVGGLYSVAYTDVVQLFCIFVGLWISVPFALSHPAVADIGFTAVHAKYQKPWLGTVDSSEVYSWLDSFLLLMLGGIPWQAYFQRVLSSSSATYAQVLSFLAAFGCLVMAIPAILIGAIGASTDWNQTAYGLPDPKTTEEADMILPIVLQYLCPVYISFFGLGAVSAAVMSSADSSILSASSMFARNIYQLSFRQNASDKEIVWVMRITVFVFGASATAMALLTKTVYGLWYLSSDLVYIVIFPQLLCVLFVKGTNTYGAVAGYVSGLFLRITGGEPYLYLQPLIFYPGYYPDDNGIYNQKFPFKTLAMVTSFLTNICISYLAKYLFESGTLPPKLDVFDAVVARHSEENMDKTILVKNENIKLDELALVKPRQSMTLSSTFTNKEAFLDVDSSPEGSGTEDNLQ

SN12K1 = assay: cells; format: functional; conditions: Homo sapiens
[8] = inhibitors of clade B AD8 Env fusion, dose response, cell-based, cherry-pick (AID 652062); format: functional;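 also: luciferase signal from cell-cell fusion driven by HIV-1 clade B AD8 Env; potency is for inhibitors of fusion seen as a drop in luminescence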
[9] = inhibitors of HIV Env-driven cell fusion, dose response, cherry-pick (AID 652057); format: functional, cell-based
[10] = off-target signal loss in HeLa-CEM21 co-culture – HeLa F-luc CTL cells, cherry-picked, counter-screen for HIV-1 Env fusion inhibitor project, dose response (AID 652040); format: functional, cell-based;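 also: potency for signal decrease marking cytotoxic or nonspecific inhibition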
[11] = ZM109 Env clade C HIV-1 fusion inhibitors, dose response, HeLa effector, CEM target cells, luciferase, cherry-pick (AID 652058); format: functional, cell-based
Streptococcus = assay: Group A Streptococcus viability loss, dose response, counter-screen for streptokinase expression inhibitor project, luminescence, BacTiterGlo (AID 1915); format: functional, organism-based;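 also: potency for reduction of bacterial viability or growth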
BJ [12] = assay: cytotoxicity toward BJ-TERT fibroblasts, dose response, cell-based, RAS-independent, luminescence (AID 1933); format: functional; conditions: Homo sapiens
BJ [13] = assay: cytotoxicity toward BJ-TERT-LT-ST fibroblasts, dose response, cell-based, RAS-independent, luminescence (AID 1935); format: functional; conditions: Homo sapiens;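 also: BJ fibroblasts immortalized with TERT plus LT and ST oncogenes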
BJ [14] = assay: cells; format: functional, cell-based; conditions: Homo sapiens
[15] = system: Streptococcus sp. 'group A'; assay: growth inhibition of control SK(-) GAS strain, dose response, counter-screen for streptokinase expression inhibitor project, luminescence, kanamycin, BacTiterGlo, confirmation (AID 1900); format: functional, organism-based
[16] = target: Heat shock protein HSP 90-alpha (Homo sapiens, UniProt P07900); format: functional, organism-based
[17] = cytotoxicity toward DRD oncogenic fibroblasts, dose response, cell-based, non-viral oncogenic, luminescence (AID 1934); format: functional; conditions: Homo sapiens
Aminopeptidase N = target: T4, Aminopeptidase N (Plasmodium falciparum FcB1/Columbia, UniProt O96935); assay: P. falciparum M1AAP inhibitors, biochemical, fluorogenic H-Leu-NHMec substrate, 1536-well (AID 1445); design: species or system Plasmodium falciparum 3D7, 3D7
T4 sequence (O96935 whole entry): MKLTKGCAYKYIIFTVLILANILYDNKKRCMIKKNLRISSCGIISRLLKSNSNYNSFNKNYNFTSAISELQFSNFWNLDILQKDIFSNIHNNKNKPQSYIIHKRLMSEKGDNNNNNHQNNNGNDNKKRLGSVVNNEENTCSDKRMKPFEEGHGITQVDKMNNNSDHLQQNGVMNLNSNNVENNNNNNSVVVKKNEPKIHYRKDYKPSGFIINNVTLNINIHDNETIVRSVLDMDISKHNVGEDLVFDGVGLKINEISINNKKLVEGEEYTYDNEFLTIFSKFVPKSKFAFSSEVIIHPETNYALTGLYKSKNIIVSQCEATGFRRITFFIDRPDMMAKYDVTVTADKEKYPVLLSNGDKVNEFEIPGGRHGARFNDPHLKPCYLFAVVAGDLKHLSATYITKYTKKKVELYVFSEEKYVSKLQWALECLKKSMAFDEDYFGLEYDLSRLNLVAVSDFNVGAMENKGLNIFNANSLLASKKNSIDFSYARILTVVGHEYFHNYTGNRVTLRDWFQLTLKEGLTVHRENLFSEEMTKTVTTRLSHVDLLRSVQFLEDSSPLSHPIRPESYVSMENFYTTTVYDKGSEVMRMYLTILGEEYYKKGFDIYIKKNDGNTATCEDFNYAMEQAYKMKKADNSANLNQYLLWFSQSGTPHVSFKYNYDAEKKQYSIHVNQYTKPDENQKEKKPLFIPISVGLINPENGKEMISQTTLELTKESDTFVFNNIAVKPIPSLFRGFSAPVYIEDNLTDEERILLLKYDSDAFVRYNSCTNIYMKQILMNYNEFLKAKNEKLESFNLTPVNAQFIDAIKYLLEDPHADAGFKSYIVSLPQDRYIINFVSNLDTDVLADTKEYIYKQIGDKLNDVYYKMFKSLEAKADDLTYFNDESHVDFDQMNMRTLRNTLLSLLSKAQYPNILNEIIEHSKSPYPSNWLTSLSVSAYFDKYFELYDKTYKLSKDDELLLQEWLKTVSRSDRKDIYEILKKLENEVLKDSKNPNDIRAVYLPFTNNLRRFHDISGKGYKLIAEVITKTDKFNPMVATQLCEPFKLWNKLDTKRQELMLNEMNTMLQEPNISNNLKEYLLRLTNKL

Genome polyprotein = Genome polyprotein (dengue virus type 2, UniProt P29990); assay: Dengue-2 NS5 methyltransferase inhibitors, primary screen, biochemical, confirmation dose response (AID 588689); format: functional
Sequence of Genome polyprotein (P29990 2492-3391 limits assumed): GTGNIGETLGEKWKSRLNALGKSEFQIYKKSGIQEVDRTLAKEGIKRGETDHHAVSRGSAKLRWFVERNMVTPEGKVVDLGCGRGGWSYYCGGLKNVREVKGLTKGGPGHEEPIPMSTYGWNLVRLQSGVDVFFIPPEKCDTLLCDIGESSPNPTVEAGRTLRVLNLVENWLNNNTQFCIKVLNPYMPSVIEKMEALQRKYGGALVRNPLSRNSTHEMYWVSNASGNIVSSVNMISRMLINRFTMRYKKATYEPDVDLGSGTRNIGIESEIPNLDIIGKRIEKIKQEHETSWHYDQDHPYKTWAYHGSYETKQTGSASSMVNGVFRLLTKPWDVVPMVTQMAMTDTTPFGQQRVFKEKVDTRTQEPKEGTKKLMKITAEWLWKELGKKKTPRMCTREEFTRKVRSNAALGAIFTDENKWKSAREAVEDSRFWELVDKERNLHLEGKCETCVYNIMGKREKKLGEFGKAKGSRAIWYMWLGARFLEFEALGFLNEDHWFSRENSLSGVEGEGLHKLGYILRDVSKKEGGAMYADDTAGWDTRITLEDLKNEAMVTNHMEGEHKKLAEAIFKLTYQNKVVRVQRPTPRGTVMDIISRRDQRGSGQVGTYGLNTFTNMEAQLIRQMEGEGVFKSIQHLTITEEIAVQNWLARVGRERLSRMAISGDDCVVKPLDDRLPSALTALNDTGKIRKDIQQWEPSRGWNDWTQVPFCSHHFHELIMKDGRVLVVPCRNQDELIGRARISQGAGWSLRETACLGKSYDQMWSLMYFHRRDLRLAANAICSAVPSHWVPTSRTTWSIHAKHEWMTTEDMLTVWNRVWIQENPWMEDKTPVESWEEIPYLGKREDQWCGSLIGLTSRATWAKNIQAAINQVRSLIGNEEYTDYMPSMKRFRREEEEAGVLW

T1 sequence (P63165 whole entry): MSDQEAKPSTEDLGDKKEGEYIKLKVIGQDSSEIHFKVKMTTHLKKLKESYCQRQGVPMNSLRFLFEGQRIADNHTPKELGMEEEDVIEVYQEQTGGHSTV

SMILES: O=C(O)CP(=O)(c1ccccc1)c1ccccc1
- IC50 [1]: 100 µM (inactive)
- IC50 [2]: > 66.6 µM (inactive)

SMILES: CCOC(=O)C(C)Oc1ccc(C2NC(=O)NC(C)=C2C(C)=O)cc1Br (stereo not given)
- IC50 (H9c2): 30.6 µM (inactive)

SMILES: Oc1ccc(/C=N/NC(=S)N/N=C/c2ccc(O)cc2)cc1
- EC50 [3]: 0.316 µM (active)
- EC50 [4]: 0.317 µM (active)

SMILES: CSc1ccccc1C(=O)Nc1nc2ccccc2[nH]1
- EC50 [3]: > 112 µM (not active)
- EC50 [4]: > 112 µM (not active)

SMILES: Clc1ccc(NNc2ccnc3cc(Cl)ccc23)cc1
- IC50 (Nonstructural protein 1): 34.6 µM (active)
- CC50 [5]: > 40 µM (active)

SMILES: O=C(NCC1CCCCC1)C1(CC2CC(c3ccc(Cl)cc3)=NO2)CCNCC1 (stereo not given)
- IC50 [6]: > 20 µM (inactive)

SMILES: CC1(C)C2CC[C@]3(C)[C@H](C(=O)C=C4[C@@H]5C[C@@](C)(C(=O)O)CC[C@]5(C)CC[C@]43C)[C@@]2(C)CC[C@@H]1O[C@H]1O[C@H](C(=O)O)[C@@H](O)[C@H](O)[C@H]1O[C@@H]1O[C@H](C(=O)O)[C@@H](O)[C@H](O)[C@H]1O (stereo not given in full)
- IC50 [1]: 9.45 µM (active)
- IC50 [2]: > 66.6 µM (inactive)

SMILES: Cc1ccc(-c2nnc(CSc3nc(C(C)C)nc4sc(C)c(C)c34)o2)cc1
- EC50 [3]: > 112 µM (not active)
- EC50 [4]: > 112 µM (not active)

SMILES: COc1ccccc1CCNC(=O)c1ccc(OC)c(OC2CCN(C(C)C)CC2)c1
- IC50 [7]: 13.5 µM (active)

SMILES: O=c1cc(O)ccn1C1C=C(CO)C(O)C1O (stereo not given)
- GI50 (SN12K1): > 625 µM (inactive)

SMILES: O=C(COc1cccc2c1CCNC2=O)Nc1cccc(F)c1
- IC50 (H9c2): > 79 µM (inactive)

SMILES: Cc1ccc(/C=N/NC(=O)C(O)c2ccccc2)o1 (stereo not given)
- EC50 [3]: > 112 µM (not active)
- EC50 [4]: > 112 µM (not active)

SMILES: COC(=O)c1ccc(C(=O)OC)c(NC(=O)COC(=O)C23CC4CC(CC(O)(C4)C2)C3)c1
- IC50 (H9c2): > 79 µM (inactive)

SMILES: CN(C)S(=O)(=O)c1ccc(N2CCCC2)c(C(=O)NCCc2ccc(F)cc2)c1
- AC50 [8]: 6.5 µM (active)
- AC50 [9]: 5.95 µM (active)
- AC50 [10]: 9.35 µM (active)
- AC50 [11]: 5.76 µM (active)

SMILES: Oc1cccc2ccc(/C=C/c3ccccc3Br)nc12
- EC50 (Streptococcus): 3.96 µM (active)
- EC50 (BJ [12]): 20 µM (active)
- EC50 (BJ [13]): 108 µM (active)
- EC50 (BJ [14]): 18.1 µM (active)
- EC50 [15]: 0.212 µM (active)
- AC50 [16]: 12.9 µM (active)
- EC50 [17]: 17.4 µM (active)

SMILES: CN1C(=S)N(c2cccnc2)C(=O)/C1=C\c1ccc(N(C)C)cc1
- IC50 (Nonstructural protein 1): > 100 µM (active)

SMILES: C/C(=N\Nc1nc(C(=O)O)cs1)c1ccccc1
- IC50 (Aminopeptidase N): 34.2 µM (active)

SMILES: CN(C)C(=O)C1C2N=C(S)N(c3cccc(Cl)c3)C1(C)Oc1ccc(Cl)cc12 (stereo not given)
- IC50 (H9c2): 54.6 µM (inactive)

SMILES: COc1ccc(-c2csc(Cc3nnc4n3CCCCC4)n2)cc1
- IC50 [7]: 9.12 µM (active)

SMILES: CCOc1ccc(/C=C2\SC(=S)N(NS(=O)(=O)c3ccccc3)C2=O)cc1OC
- IC50 [7]: 5.37 µM (active)
- IC50 (Genome polyprotein): 71.2 µM (active)

SMILES: COc1cccc(C=NNC(=O)c2ccncc2)c1O
- IC50 (Nonstructural protein 1): 6.26 µM (active)

SMILES: NC(=O)CSc1cn(Cc2ccc(F)cc2)c2ccccc12
- EC50 [3]: > 112 µM (not active)
- EC50 [4]: > 112 µM (not active)

SMILES: CCC(CC)c1nnc(NC(=O)CCNC(=O)c2ccccc2Cl)s1
- EC50 [3]: > 112 µM (not active)
- EC50 [4]: > 112 µM (not active)

SMILES: Cc1cccc(N=C(S)NCc2ccncc2)c1C
- EC50 [3]: > 112 µM (not active)
- EC50 [4]: > 112 µM (not active)

SMILES: O=C(CSc1nc2ccsc2c(=O)n1Cc1ccccc1)NCC1CCCO1 (stereo not given)
- IC50 [6]: > 20 µM (inactive)

SMILES: CCN(CC)S(=O)(=O)c1ccc(NC2c3ccccc3C(=O)N2Cc2ccc3c(c2)OCO3)cc1 (stereo not given)
- AC50 [9]: 1.33 µM (active)
- AC50 [10]: 3.71 µM (active)
- AC50 [11]: 7.39 µM (active)

SMILES: Cc1ccnc(NCc2c(O)ccc3ccccc23)c1
- IC50 [6]: > 20 µM (inactive)

SMILES: Cc1ccc2c(c1)c1nnc(SCC(=O)Nc3ccccc3C(F)(F)F)nc1n2CC(=O)O
- IC50 (Aminopeptidase N): 18.6 µM (active)

SMILES: O=C(C(=O)N1CCOCC1)c1cn(Cc2ccccc2Cl)c2ccccc12
- IC50 [6]: > 20 µM (inactive)

SMILES: Cc1ccc(NC(C)C(=O)N/N=C/c2c[nH]c3ccccc23)cc1 (stereo not given)
- EC50 [3]: > 112 µM (not active)
- EC50 [4]: > 112 µM (not active)

SMILES: CCn1c(=O)c(C(=O)NC(C)c2ccccc2)c(O)c2ccccc21 (stereo not given)
- IC50 (H9c2): 13.5 µM (active)

SMILES: C=CC(=O)Nc1cccc(Oc2ccnc(Nc3ccc(N4CCN(C)CC4)cc3)n2)c1
- IC50 (Nonstructural protein 1): 23.1 µM (active)

SMILES: NC(=O)c1ccsc1NC(=O)c1cc(=O)c2ccccc2o1
- IC50 [1]: 11.7 µM (active)
- IC50 [2]: > 66.6 µM (inactive)

SMILES: O=C(CN1CCN(c2ncc(C(F)(F)F)cc2Cl)CC1)NCCNc1ncc(C(F)(F)F)cc1Cl
- AC50 [16]: 5.87 µM (active)

SMILES: COc1ccc(CCn2c(Br)nc3c2c(=O)[nH]c(=O)n3C)cc1
- IC50 (H9c2): > 79 µM (inactive)

SMILES: CCN1CCCC1CN(Cc1cc2ccc(C)cc2nc1O)C(S)=Nc1ccc(F)cc1 (stereo not given)
- AC50 [16]: 2.64 µM (active)
